Here are results for 77 molecules from ChEMBL document CHEMBL1137703, “Predictive QSAR modeling of HIV reverse transcriptase inhibitor TIBO derivatives” (Eur J Med Chem, 2009).

The structures appear in SMILES notation.

One assay concerns the target Human immunodeficiency virus type 1 reverse transcriptase (Human immunodeficiency virus 1, UniProt Q72547). Nature of the assay: Inhibition of HIV1 reverse transcriptase.
Conditions: not given
In the case of `CCCN1CCn2c(=S)[nH]c3cccc(c32)C1C` (configuration not stated), the “log(1/IC50)” value worked out at 5.61.

On to `CCCN1Cc2cccc3[nH]c(=O)n(c23)CC1C` (configuration not stated), for which the “log(1/IC50)” value was 4.22. In the case of `CC1CN(CC2CC2)Cc2cc(Cl)cc3[nH]c(=S)n1c23` (configuration not stated), the “log(1/IC50)” value was 5.66.

Consider `CCCN1Cc2cccc3[nH]c(=S)n(c23)CC1C` (configuration not stated), for which the “log(1/IC50)” value is listed as 5.78.

The assay is the same for the next values; noted with them: read-out: log(1/IC50) (converted).
Regarding `CCCN1Cc2cccc3[nH]c(=O)n(c23)C(C(C)C)C1` (configuration not stated), the IC50 was 74100 nM.

Take `CCCN1CCn2c(=O)[nH]c3cccc(c32)C1C` (configuration not stated): the IC50 is 83200 nM. Same read-out and setting: then `C[C@H]1Cn2c(=O)[nH]c3cc(N)cc(c32)CN1CC1CC1`, with 60500 nM; and `S=c1[nH]c2cccc3c2n1C(Cc1ccccc1)C(Cc1ccccc1)N(CC1CC1)C3` (configuration not stated), with 10000 nM. Same read-out and setting: with `C[C@H]1Cn2c(=O)[nH]c3cc(N(C)C)cc(c32)CN1CC1CC1` the figure was 6650 nM. Take `C[C@H]1Cn2c(=O)[nH]c3cc([N+](=O)[O-])cc(c32)CN1CC1CC1`: the IC50 was 33400 nM.

For the molecule `CCCN1Cc2cc(Cl)cc3[nH]c(=S)n(c23)C(=O)C1C` (configuration not stated), the IC50 is 50100 nM. `C[C@H]1Cn2c(=O)[nH]c3ccc(N(C)C)c(c32)CN1CC1CC1`: the IC50 was 6650 nM. On to `S=c1[nH]c2cc(Cl)cc3c2n1CCN1CCCCC31` (configuration not stated), for which the IC50 is 2000 nM. As for `C=CCN1Cc2cccc3[nH]c(=O)n(c23)C[C@@H]1C`, the IC50 was 70100 nM.

With `C=C(C)N1Cc2cccc3[nH]c(=O)n(c23)C(C)C1` (configuration not stated), the IC50 was 32400 nM. For `CC(C)=CN1Cc2cccc3[nH]c(=O)n(c23)C[C@@H]1C`, the IC50 is 3310 nM. `CC(C)=CN1CCn2c(=S)[nH]c3ccc(Cl)c(c32)C1C` (configuration not stated): the IC50 was 12 nM. Take `C=C(C)N1Cc2cccc3[nH]c(=O)n(c23)CC1(C)C`: the IC50 is 22900 nM. `COc1ccc2c3c1[nH]c(=O)n3C[C@H](C)N(C=C(C)C)C2`: the IC50 is 6610 nM. Consider `C#Cc1ccc2[nH]c(=S)n3c2c1CN(C=C(C)C)[C@@H](C)C3`, for which the IC50 was 29.5 nM.

For `CC(C)=CN1[C@@H](C)Cn2c(=O)[nH]c3cc(Cl)cc(c32)[C@@H]1C`, the IC50 was 5010 nM.

For `C/C=C1/C[C@H]2Cn3c(=S)[nH]c4cc(Cl)cc(c43)CN2C1`, the IC50 was 3800 nM. Same read-out and setting: with `CC(C)=CN1Cc2cc(Cl)cc3[nH]c(=O)n(c23)C[C@@H]1C` the figure was 182 nM; with `C[C@H]1Cn2c(=S)[nH]c3cc(Cl)cc(c32)CN1CC1CC1`, 33.9 nM; with `CC(C)=CN1Cc2c(I)ccc3[nH]c(=O)n(c23)C[C@@H]1C`, 87.1 nM. As for `CC(C)=CN1[C@H](C)Cn2c(=O)[nH]c3cc(Cl)cc(c32)[C@H]1C`, the IC50 is 229 nM. Regarding `CC(C)=CN1[C@H](C)Cn2c(=S)[nH]c3cc(Cl)cc(c32)[C@H]1C`, the IC50 was 479 nM. With `C#Cc1ccc2[nH]c(=O)n3c2c1CN(C=C(C)C)[C@@H](C)C3`, the IC50 was 437 nM. Same read-out and setting: then `CC(C)=CN1Cc2ccc(Br)c3[nH]c(=S)n(c23)C[C@@H]1C`, with 1070 nM; and `CCOc1ccc2[nH]c(=S)n3c2c1CN(C=C(C)C)[C@@H](C)C3`, with 95.9 nM. On to `CC(C)=CN1Cc2c(C(N)=O)ccc3[nH]c(=O)n(c23)C[C@@H]1C`, for which the IC50 is 6350 nM.

On to `C=C(C)N1Cc2cccc3[nH]c(=O)n(c23)C(CCC)C1` (configuration not stated), for which the IC50 is 47900 nM.

For `CC(C)=CN1CCn2c(=S)[nH]c3cc(Cl)cc(c32)C1`, the IC50 was 162 nM. The same measure, in the same setting: then `CC(C)=CN1CCn2c(=O)[nH]c3cc(Cl)cc(c32)C1C` (configuration not stated), with 162 nM; and `CC(C)=CN1Cc2c(C#N)ccc3[nH]c(=O)n(c23)C[C@@H]1C`, with 1150 nM. Still for that read-out and setting: then `C=C(C)N1Cc2cccc3[nH]c(=O)n(c23)CC1CC` (configuration not stated), with 50100 nM; and `C=C(C)N1Cc2cccc3[nH]c(=O)n(c23)CC1C(C)C` (configuration not stated), with 10000 nM; and `CC(C)=CN1Cc2cccc3[nH]c(=O)n(c23)CC1C(C)C` (configuration not stated), with 10000 nM. Same read-out and setting: with `C=C(C)N1Cc2cc(Cl)cc3[nH]c(=S)n(c23)C(C)C1` (configuration not stated) the figure was 676 nM; with `COc1ccc2c3c1[nH]c(=S)n3C[C@H](C)N(C=C(C)C)C2`, 4680 nM. As to `CC(C)=CN1CCn2c(=S)[nH]c3cc(Cl)cc(c32)C1C` (configuration not stated), the IC50 is 22.9 nM. Consider `CC(C)=CN1Cc2c(Br)ccc3[nH]c(=O)n(c23)C[C@@H]1C`, for which the IC50 was 47.4 nM. Turning to `COc1ccc2[nH]c(=S)n3c2c1CN(C=C(C)C)[C@@H](C)C3`, the IC50 is 34 nM.

In the case of `C=C(C)N1Cc2cccc3[nH]c(=S)n(c23)C[C@@H]1C`, the IC50 was 26.3 nM. Same read-out and setting: with `CC(C)=CN1CCn2c(=O)[nH]c3cccc(c32)C1` the figure was 12600 nM; with `C=C(C)N1Cc2cccc3[nH]c(=O)n(c23)CC1C` (configuration not stated), 34700 nM; with `C[C@H]1Cn2c(=S)[nH]c3cccc(c32)CN1CC1CC1`, 60.3 nM. For `CC(C)=CN1Cc2cccc3[nH]c(=S)n(c23)CC1C` (configuration not stated), the IC50 is 97.7 nM. On to `C=C(C)N1CCn2c(=O)[nH]c3cccc(c32)C1`, for which the IC50 is 46800 nM. Turning to `CC(C)=CN1Cc2cccc3[nH]c(=S)n(c23)C[C@@H]1C`, the IC50 is 44.2 nM.

For the molecule `CC(C)=CN1Cc2c(Br)ccc3[nH]c(=S)n(c23)C[C@@H]1C`, the IC50 is 3.01 nM. `C=C(CC)N1CCn2c(=O)[nH]c3cccc(c32)C1`: the IC50 was 37200 nM.

Turning to `CC(C)=CN1Cc2c(C)ccc3[nH]c(=O)n(c23)C[C@@H]1C`, the IC50 is 1000 nM. For the molecule `CC(C)=CN1Cc2cc(Cl)cc3[nH]c(=S)n(c23)C[C@@H]1C`, the IC50 was 42.7 nM. Take `CC(C)=CN1Cc2c(C)ccc3[nH]c(=S)n(c23)C[C@@H]1C`: the IC50 is 13.6 nM. `CC(C)=CN1Cc2c(I)ccc3[nH]c(=S)n(c23)C[C@@H]1C`: the IC50 was 47.9 nM. Still for that read-out and setting: with `CC(C)=CN1Cc2c(F)ccc3[nH]c(=S)n(c23)C[C@@H]1C` the figure was 5.82 nM; with `CC(C)=CN1Cc2cc(Cl)c(Cl)c3[nH]c(=S)n(c23)C[C@@H]1C`, 25.6 nM. `CC(C)=CN1CCn2c(=S)[nH]c3cccc(c32)C1C` (configuration not stated): the IC50 was 77.6 nM. As for `CC(C)=CN1Cc2c(Cl)ccc3[nH]c(=S)n(c23)C[C@@H]1C`, the IC50 is 5.01 nM. The same measure, in the same setting: with `C=C(C)N1Cc2cccc3[nH]c(=O)n(c23)C(C(C)C)C1` (configuration not stated) the figure was 12600 nM; with `CC(C)=CN1CCn2c(=O)[nH]c3ccc(Cl)c(c32)C1C` (configuration not stated), 145 nM; with `CC(C)=CN1Cc2c(C#N)ccc3[nH]c(=S)n(c23)C[C@@H]1C`, 56.2 nM.

For `CC(C)=CN1Cc2cc(F)cc3[nH]c(=S)n(c23)C[C@@H]1C`, the IC50 is 25 nM.

Turning to `CCCN1CCn2c(=O)[nH]c3cccc(c32)C1`, the IC50 was 89100 nM. Turning to `CSc1ccc2[nH]c(=S)n3c2c1CN(C=C(C)C)[C@@H](C)C3`, the IC50 is 5 nM. Take `CC(C)=CN1Cc2c(C=O)ccc3[nH]c(=S)n(c23)C[C@@H]1C`: the IC50 is 186 nM. Still for that read-out and setting: with `CC(C)=CN1CCn2c(=S)[nH]c3ccc(Cl)c(c32)C1` the figure was 45.7 nM. As to `CC(C)=CN1CCn2c(=O)[nH]c3cccc(c32)C1C` (configuration not stated), the IC50 is 12000 nM. On to `C[C@H]1Cn2c(=S)[nH]c3cc([N+](=O)[O-])cc(c32)CN1CC1CC1`, for which the IC50 was 2450 nM. The same measure, in the same setting: with `CC(C)=CN1C[C@H](C)n2c(=S)[nH]c3cccc(c32)[C@H]1C` (relative stereo) the figure was 25700 nM; with `CC(C)=CN1Cc2cccc3[nH]c(=S)n(c23)[C@@H](C)[C@@H]1C` (relative stereo), 14500 nM. Regarding `CC(C)=CN1Cc2cccc3[nH]c(=O)n(c23)[C@@H](C)[C@H]1C` (relative stereo), the IC50 was 56200 nM. Same read-out and setting: then `CC(C)=CN1[C@H](C)c2cccc3[nH]c(=S)n(c23)C[C@@H]1C` (relative stereo), with 1150 nM; and `CC(C)=CN1[C@@H](C)Cn2c(=S)[nH]c3cccc(c32)[C@@H]1C` (relative stereo), with 41.7 nM; and `CC(C)=CN1Cc2cccc3[nH]c(=S)n(c23)[C@@H](C)[C@H]1C` (relative stereo), with 2240 nM. Still for that read-out and setting: with `C[C@H]1[C@H](C)n2c(=S)[nH]c3cccc(c32)CN1CC1CC1` (relative stereo) the figure was 13500 nM.
